Measurements from patent publication US20110034397A1, “INTESTINAL IMMUNE SYSTEM STIMULATOR” (priority 2008, published 2011).

How the values were obtained:
BALB/c male mice = assay type: in vivo, mouse; details: relative index, non-administered control group = 1, 10 mg/kg B.W./day by gavage, 7 days
Experimental: Five-week-old BALB/c male mice (n=6) were fed for 1 week and then used in this experiment. A commercially-available feed was used, and the mice' access to the feed was unrestricted, and tap water was provided. γ-Glutamylcysteine was dissolved in sterilized physiological saline, and gavage administration was performed at 10 mg/kg B.W./day. The administration period was 7 days. During the administration period, the body weights were measured every day immediately before the administration to determine the dosage. There was no difference between the body weights of the different groups. On day 7 after the start of the test, a necropsy examination was performed. Anesthesia was performed by interperitoneal administration with a pentobarbital formulation. At laparotomy, blood was collected from the abdominal aorta. The small intestinal contents were also collected. Serum was collected from the blood, and the total IgA and total IgG concentrations were measured using an ELISA kit. The intestinal contents were diluted 10-fold with PBS and suspended sufficiently, and centrifugation was then performed to separate the […]. The total IgA concentration was measured by ELISA in the same way as in Example 1. In the table, γ-EC represents γ-glutamylcysteine. […] However, the amounts of serum IgA and serum IgG were found not to increase, and it was confirmed that the peptide was able to stimulate the immunoactivity in the intestinal mucosa.

mouse spleen cells [1] = test: Antibody production by mouse spleen cells stimulated with ConA (ELISA of culture supernatant); assay type: cell-based; details: 0.5 μg ConA, cultured 5 days, versus control, FIG. 3
Experimental: Six- to eight-week-old BALB mice (female) were fed for 1 week a commercially-available solid feed and provided with tap water. To evaluate the influence of γ-glutamylcysteine on antibody production, a culture system using mouse spleen cells was employed. The spleen cells were collected from the BALB-c mice (n=3), then washed and suspended in RPMI 1640 medium (10% FCS, 50 U/ml penicillin, 50 μg/ml streptomycin). The cells were adjusted so that there were 1×10^6 cells per 48-well culture plate, and then either γ-glutamylcysteine or glutathione (purchased from Sigma) each dissolved in a phosphate buffer, was added to the plates. A phosphate buffer was added to plates as a control. […] The cells were again adjusted so that there were 1×10^6 cells per 48-well culture plate, and then stimulated with 0.5 μg of ConA (concanavalin A) in the presence or absence of γ-glutamylcysteine or glutathione. The cells were then cultured in a CO2 incubator at 37° C. for 5 days, and the amounts of the antibodies in the supernatant were analyzed. The amounts of IgA and IgG were measured by the ELISA method. The method for measuring IgG is described below. […] The reaction was stopped with 100 μl of 3 M NaOH/well, and the absorbance was measured at 405 nm. IgA was measured in accordance with the same method as for IgG except that a rat anti-mouse IgA antibody (BD Biosciences) was used as the immobilized antibody. […]

mouse spleen cells [2] = test: Antibody production by mouse spleen cells stimulated with LPS (ELISA of culture supernatant); assay type: cell-based; details: 5 μg LPS, cultured 5 days, versus phosphate buffer control, FIG. 1
Experimental: Six- to eight-week-old BALB mice (female) were fed for 1 week a commercially-available solid feed and provided with tap water. To evaluate the influence of γ-glutamylcysteine on antibody production, a culture system using mouse spleen cells was employed. The spleen cells were collected from the BALB-c mice (n=3), then washed and suspended in RPMI 1640 medium (10% FCS, 50 U/ml penicillin, 50 μg/ml streptomycin). The cells were adjusted so that there were 1×10^6 cells per 48-well culture plate, and then either γ-glutamylcysteine or glutathione (purchased from Sigma) each dissolved in a phosphate buffer, was added to the plates. A phosphate buffer was added to plates as a control. Then, the cells were stimulated with 5 μg of LPS (lipopolysaccharide, obtained from Sigma). […] The cells were then cultured in a CO2 incubator at 37° C. for 5 days, and the amounts of the antibodies in the supernatant were analyzed. The amounts of IgA and IgG were measured by the ELISA method. […] The reaction was stopped with 100 μl of 3 M NaOH/well, and the absorbance was measured at 405 nm. IgA was measured in accordance with the same method as for IgG except that a rat anti-mouse IgA antibody (BD Biosciences) was used as the immobilized antibody. […]

## N[C@@H](CCC(=O)N[C@@H](CS)C(=O)O)C(=O)O [γ-glutamylcysteine, γ-Glutamylcysteine]
BALB/c male mice
  Serum IgA: 0.3
  Serum IgG: 0.6
BALB/c male mice; total IgA in small intestinal contents
  Small intestine IgA: 3.0
Mouse spleen cells [1]
  amounts of IgA produced: increase production of IgA as compared with glutathione
Mouse spleen cells [2]
  amounts of IgA produced: increase production of IgA as compared with glutathione
